In US8604192B2, “Cyclohexenyl nucleic acids analogs” (Isis Pharmaceuticals, Inc., priority 2008, dated 2013):

Tests used:
PTEN = assay: 3-10-3 gapped oligomeric compounds targeted to PTEN: in vivo study, liver mRNA levels by real-time PCR; parameters: species or system Balb/c mice; conditions: estimated ED50 for liver PTEN mRNA reduction (% UTC); single dose of 3.2, 10, 32 and 100 mg/kg; sacrificed 48 hours after administration; calculated using Graphpad Prism
From the text: Quantitation of target mRNA levels is accomplished by real-time quantitative PCR using the ABI PRISM™ 7600, 7700, or 7900 Sequence Detection System (PE-Applied Biosystems, Foster City, Calif.) according to manufacturer's instructions. This is a closed-tube, non-gel-based, fluorescence detection system which allows high-throughput quantitation of polymerase chain reaction (PCR) products in real-time. As opposed to standard PCR in which amplification products are quantitated after the PCR is completed, products in real-time quantitative PCR are quantitated as they accumulate. […] With each cycle, additional reporter dye molecules are cleaved from their respective probes, and the fluorescence intensity is monitored at regular intervals by laser optics built into the ABI PRISM™ Sequence Detection System. In each assay, a series of parallel reactions containing serial dilutions of mRNA from untreated control samples generates a standard curve that is used to quantitate the percent inhibition after antisense oligonucleotide treatment of test samples.
Prior to quantitative PCR analysis, primer-probe sets specific to the target gene being measured are evaluated for their ability to be “multiplexed” with a GAPDH amplification reaction. […]

[1] = tested on: complementary RNA (20-mer RNA); assay: Tm of gapped oligomeric compound with complementary RNA; format: binding; conditions: 100 mM phosphate buffer, 0.1 mM EDTA, pH 7, 260 nm, 4 μM oligomeric compound and 4 μM complementary RNA
Description: (§1) Six week old Balb/c mice (Jackson Laboratory, Bar Harbor, Me.) were injected with a single dose of ASOs 464846 and 464847 targeted to PTEN at a dose of 3.2, 10, 32 and 100 mg/kg. The mice were sacrificed 48 hours following the last administration. Liver tissues were homogenized and mRNA levels were quantitated using real-time PCR using procedures illustrated herein for comparison to untreated control levels (% UTC). Plasma chemistry analysis was also completed. Tms were determined in 100 mM phosphate buffer, 0.1 mM EDTA, pH 7, at 260 nm using 4 μM of the gapped oligomeric compounds listed below and 4 μM of the complementary RNA.

[2] = Liver transaminase levels (ALT) in serum, plasma chemistry analysis; format: in vivo, Balb/c mice; conditions: approximate serum level, mice, 48 hours; for ALT @ 3.2 mg/kg: single dose 3.2 mg/kg; for ALT @ 10 mg/kg: single dose 10 mg/kg; for ALT @ 32 mg/kg: single dose 32 mg/kg; for ALT @ 100 mg/kg: single dose 100 mg/kg
Description: as §1
Liver transaminase levels, alanine aminotranferease (ALT) and aspartate aminotransferase (AST), in serum were also measured relative to saline injected mice.

Row | Substance | ED50 (PTEN) [mg/kg] | Tm (° C.) vs. 20-mer RNA [1] [°C] | ALT @ 3.2 mg/kg [2] | ALT @ 10 mg/kg [2] | ALT @ 32 mg/kg [2] | ALT @ 100 mg/kg [2]
1 | Tf^mCfTfTAG^mCA^mCTGGC^mCfTfTf (DNA TCTTAGCACTGGCCTT; all phosphorothioate, sugars by position and methylation of C not given here; wing nucleosides modified (marked e), some C 5-methyl) [05/464847] | 22 | 64.37 | 24 | 23 | 24 | 284
2 | Te^mCeTeTAG^mCA^mCTGGC^mCeTeTe (DNA TCTTAGCACTGGCCTT; all phosphorothioate, sugars by position and methylation of C not given here; 3-10-3 gapmer, wing nucleosides defined elsewhere, some cytosines 5-methylated) [05/464846] | 91 | 62.35 | 38 | 25 | 22 | 22
